This is an account of results in patent publication US7033597B2, “Intracellular delivery of biological effectors” (Université de Lausanne, priority 2000, dated 2006).

Where no end group is shown, it is not given here.

Format in all cases: cell-based
One assay has as its system βTC-3 cell line. Kind of assay: Panning of phage display library on βTC-3 cells, occurrence of recovered phages. The protocol: (§1) A library of 3×10^8 independent phages displaying random 15-mer epitopes at the surface of the capsids was generated using standard procedures (e.g., in T7 415 or the T7 413b phage, Novagen). See Smith and Scott, Methods Enzymol. 217:228 (1993). Phages were amplified then purified by polyethylene glycol (PEG) precipitation and finally resuspended at a concentration of 10^10 infective particles per μl in Tris-EDTA buffer (10:1 mM, TE) as described (by Smith and Scott, supra). Phages (10^12) were added to cells in culture medium for 1 to 24 hours. Longer incubation times were preferred to favor isolation of phages that escaped proteolytic degradation in endocytotic vesicles. Following binding and internalization, cells were washed and non-internalized phages were destroyed by digestion with subtilisin (3 mg/ml) (44). Following extensive washing, internalized phages were then recovered by lysing cells in a buffer containing 2% deoxycholate, 10 mM Tris-HC1 and 2mM EDTA, pH 8.0. Recovered phages were finally amplified in E. coli cells (XL-1-Blue) and purified as described above. This preparation of selected phages was then used for a second round of panning. Three to five sequential rounds were performed to obtain enrichment of specific phage-bearing peptide sequences.
The pancreatic β-cell line βTC-3 was panned with the phage display library mentioned herein. […] Panning experiments using βTC-3 cells were performed with 10^9 phages used at each step of the enrichment procedure. The number of phages recovered at 0 ° C.
The occurrence of phages recovered after three steps of panning in the βTC-3 cell line is seen in Table 2.

The subject of assay [1] is βTC-3 cells. Kind of assay: Immunocytochemistry and fluorescence studies of oximes. The note with it: fluorescence studies. As for the experimental part:
Single phages isolated according to the enrichment scheme above were amplified. The phage peptides and one of oximes 1–6 were added and incubated for 24 hours with cells in culture medium. Medium was then washed off and cells fixed in cold methanol-acetone (1:1) for 5 minutes. Antibodies directed against the phage capsid or against biotin (peptides) were used with a fluorescein-conjugated (phage) or Texas Red labeled (peptides) secondary antibody. Classical fluorescence microscopic studies and confocal microscopic assays were performed.
Oximes 1–3 were first tested for their entry into βTC-3 cells. […] The superiority of oxime 3 may be due to the flexibility of the PEG spacer, which increases binding to the receptors on the cells.
Oximes 4–6, which are similar to oxime 3, were then synthesized and assayed for binding avidity and entry efficiency.

Assay [2] relates to βTC-3 cells. As to the kind of experiment: Titration of phage P1 incubated with βTC-3 cells. As for the experimental part:
as §1
The ratio of input/recovered phages is also shown.

A further assay concerns A549. As to the kind of experiment: Specificity of phage uptake, internalized and recovered phages. The note with it: 10^8 phages incubated 16 hours. The protocol: as §1
(§2) Determination of the specificity of uptake was performed by titrating the number of recovered phages in 5 different cell lines.

The test system of the next assay is HeLa. The description is as above. As to conditions: 10^8 phages incubated 16 hours. As for the experimental part:
as §1, §2

In a further assay the test system is HepG2. The description is as above. The note with it: 10^8 phages incubated 16 hours. As for the experimental part:
as §1, §2

A further assay deals with WiDr. The description is as above. As to conditions: 10^8 phages incubated 16 hours. The protocol: as §1, §2
The next assay has as its system βTC-3. The description is as above. As for the experimental part:
as §1, §2

Another assay has as its system 5 different cell lines. As to the kind of experiment: Specificity of phage uptake across the cell lines. The note with it: βTC-3 vs HeLa, WiDr, HepG2, A549. As for the experimental part: as §1, with “sequences. […]” for “sequences.”

RRPK [Oxime P66]: the “occurrence of phages recovered after three steps of panning” value (“occurrence of phages recovered” below) in the assay with βTC-3 cell line was determined as 5.5%.
With “Oxime 3: tetraoxime with four copies of RRTK, two-unit PEG spacer between peptide and core 1, FITC reporter (RRTK-OH; not fully specified (N-terminus, bridges); also: tetraoxime: four RRTK copies joined by thioether to Cys of branched trilysine core 1, core carries aminooxyacetyl-Lys(FITC) via oxime bond)”, in the assay with βTC-3 cells [1], the “binding to receptors on the cell surface” value was “clearly bound to the receptors on the surface of βTC-3 cells”.
In the case of RKLR [Oxime P6], the “occurrence of phages recovered” value in the assay on βTC-3 cell line is 17%.
Consider RRTK [Oxime P1], for which the “occurrence of phages recovered” value in the assay on βTC-3 cell line came out at 61%. The “% Recovered” value in the assay on βTC-3 cells [2] (incubation 1 h) amounted to 0.01%. Further, the “initial phage input recovered” value in the assay with βTC-3 cells [2] (titration experiments) is given as at most 10%. For the same substance, the Phages recovered in the assay on A549 is on record as 10^3; with HeLa it was <1 × 10^2; in the assay with HepG2, under 10; with WiDr, 2 × 10^2; in the assay with βTC-3 (βTC-3, 10^8 phages incubated 16 hours), 1 × 10^7. Besides, in the assay with βTC-3 (phage experiments, βTC-3 cells), the efficiency of internalization result was “low”. Further, the uptake by cells result in the assay with βTC-3 (phage experiments, βTC-3 cells) is given as “taken up specifically by βTC-3 cells via receptor-mediated endocytosis”. Besides, the “uptake by βTC-3 cells relative to any other cell line tested” value with 5 different cell lines is reported as 10,000 to 1,000,000 fold.
